In patent publication US9611232B2, “Oxazolidinone and imidazolidinone compounds” (Hoffmann-La Roche Inc., priority 2012, dated 2017):

Tests used:
KCa3.1 = KCa3.1 (Homo sapiens (Human), UniProt O15554); assay: Thallium influx assay (FLIPR, FluxOR); assay type: cell-based; settings: CHOK1 cells over-expressing KCa3.1; thallium (3.3 mM)/ionomycin (1 μM) activation
Experimental: The thallium influx assay was performed with CHOK1 cells over-expressing KCa3.1 obtained from Evotec and maintained in MEM Alpha medium supplemented with 10% fetal bovine serum, 100 U/ml penicillin/[…] streptomycin and 250 μg/ml G418.
CHOK1 wild type cells were passaged using F12/Ham's medium supplemented with 10% fetal bovine serum, 2 mM glutamine, 100 U/ml penicillin/[…] streptomycin. All cells were cultured in T175 flasks.
Before the day of the assay, cells were harvested from culture flasks using standard trypsin digestion. Cells were counted and densities adjusted and dispensed into 384-well poly-D-lysine coated plates at 7500 […], assay plates were incubated overnight in CO2 incubator at 37° C.
The following day, growth media was removed followed by the addition of 25 ul/well of FluxOR™ (Invitrogen) loading dye in a gluconate based assay buffer (135 mM NaGluconate,
2.5 mM Kgluconate, 2 mM CaNO3, 1 mM MgNO3, 10 mM HEPES (acid), 5 mM glucose pH adjusted to 7.4). Assay plates were incubated for 1 hour at 37° C. The loading dye was then replaced with gluconate assay buffer containing probenecid.
Compounds diluted in gluconate buffer were transferred into the assay plates (25 μl/well) followed by incubation for 20 minutes at room temperature. The assay plates were then transferred to a Fluorometric Imaging Plate Reader (FLIPR), a baseline was read for twenty second capture, followed by the addition of 25 μl/well of channel activation solution in gluconate buffer—for KCa3.1 cells thallium (3.3 mM)/ionomycin(1 μM) was used and for the wild type, ionomycin only, then fluorescence was monitored for another 90 seconds.

h KCa3.1 = h KCa3.1 (Homo sapiens (Human), UniProt O15554); assay: Electrophysiology patch clamp (PatchXpress); assay type: cell-based; settings: CHO cells over-expressing h KCa3.1, read-out: IC50 Ephys
Experimental: Electrophysiology Patch Clamp
Compounds were tested using a PatchXpress® (Model 7000A, Molecular Devices, Union City Calif.) on CHO cells over-expressing h KCa3.1 at ChanTest Corporation, 14656 Neo Parkway, Cleveland, Ohio.

[1] = tested on: allergen challenge-induced airway resistance and hyper-reactivity; settings: sheep model of asthma; cited from earlier work
MDCK 3-D cyst = MDCK 3-D cyst model of ADPKD; cited from earlier work
[2] = tested on: trinitrobenzene sulfonic acid-induced colitis; settings: mice; cited from earlier work
[3] = tested on: T-cell and macrophage infiltration; settings: in combination with a Kv1.3 blocker; early stages of chronic kidney transplant rejection; cited from earlier work
[4] = tested on: neointimal smooth muscle hyperplasia; settings: rats after carotid balloon angioplasty; cited from earlier work
renal fibrosis = settings: unilateral ureteral obstruction model; cited from earlier work
human melanoma = settings: severe combined immunodeficiency mice; cited from earlier work
[5] = tested on: human endometrial cancer cells; settings: nude mice; cited from earlier work

Compound: NC(=O)CN1C(=O)OC(c2ccc(F)cc2)(c2ccc(F)cc2)[C@@H]1c1ccc(F)cc1 [Example 7, 2-[(S)-4,5,5-Tris-(4-fluoro-phenyl)-2-oxo-oxazolidin-3-yl]-acetamide]
- IC50 (KCa3.1): 0.72 µM
- IC50 (h KCa3.1): 0.045 µM

Compound: CCOC(=O)CN1C(=O)O[C@@H](c2cccc(C(F)(F)F)c2)[C@H]1c1ccc(F)cc1 (racemic) [Example 32, [(4RS,5SR)-4-(4-Fluoro-phenyl)-2-oxo-5-(3-trifluoromethyl-phenyl)-oxazolidin-3-yl]-acetic acid ethyl ester]
- IC50 (KCa3.1): 0.6 µM
- IC50 (h KCa3.1): 0.062 µM

Compound: NC(=O)CN1C(=O)OC(c2ccccc2F)(c2ccccc2F)[C@@H]1c1ccccc1F [Example 13, 2-[(S)-4,5,5-Tris-(2-fluoro-phenyl)-2-oxo-oxazolidin-3-yl]-acetamide]
- IC50 (KCa3.1): 0.34 µM
- IC50 (h KCa3.1): 0.015 µM

Compound: NC(=O)C(c1ccccc1)(c1ccc(F)cc1)c1ccc(F)cc1 [Senicapoc]
- allergen challenge-induced airway resistance and hyper-reactivity [1]: reduce allergen challenge-induced airway resistance and hyper-reactivity

Compound: NC(=O)CN1C(=O)OC(c2ccccc2)(c2ccccc2)[C@@H]1c1ccccc1F [Example 17, 2-[(S)-4-(2-Fluoro-phenyl)-2-oxo-5,5-diphenyl-oxazolidin-3-yl]-acetamide]
- IC50 (KCa3.1): 0.88 µM
- IC50 (h KCa3.1): 0.015 µM

Compound: Clc1ccccc1C(c1ccccc1)(c1ccccc1)n1cccn1 [TRAM-34]
- cyst formation (MDCK 3-D cyst): inhibits cyst formation
- severity of the symptoms [2]: significantly reduced the severity of the symptoms
- T-cell and macrophage infiltration [3]: reduced T-cell and macrophage infiltration
- neointimal smooth muscle hyperplasia [4]: significantly reduced neointimal smooth muscle hyperplasia
- renal fibrosis (renal fibrosis): significantly reduced renal fibrosis

Compound: Clc1ccccc1C(c1ccccc1)(c1ccccc1)n1ccnc1 [Clotrimazole]
- number of metastases (human melanoma): reduce the number of metastases
- growth of tumours [5]: slowed the growth of tumours
